As a reminder, the LD50 is the dose expected to kill half of the subjects tested. Higher therefore signals a less toxic substance. By solubility is commonly meant the concentration that dissolves in the medium under given conditions.

Values after ≈ are worked out from the molar mass of the structure shown. Some results are limits rather than exact numbers.

The values below come from patent publication US4978654A, “Composition and method for treatment of disseminated fungal infections in mammals” (priority 1987, dated 1990).

One series concerns Candida albicans. In words: In vitro MFC, YNB tube dilution (Table 1). The series is classed as cell-based. The note with it: 18 h. On the procedure: (§1) In vitro tests were conducted to determine the effect of free Amp B, Amp B encapsulated in nor-sterol-containing liposomes, (L-Amp B), Amp B encapsulated in cholesterol-containing liposomes (L-Amp B-C) and Amp B in ergosterol-containing liposomes (L-Amp B-E). Desoxycholate free Amphotericin B was obtained from E. R. Squibb & Sons, Inc. Amp B was encapsulated in non-sterol containing liposomes by the method described by Lopez-Berestein, et al., and summarized in Example 1, above. In order to obtain the different doses necessary, lipid concentration was held constant as the Amp B concentration was decreased. The concentration of Amp B within the liposome was determined by scanning in a UV absorption spectrophotometer (Gilford Instrument Laboratories, Oberlin, Ohio) at 405 nm after the Amp B was dissolved in methanol. Cholesterol or ergosterol, obtained from Avanti Polar Lipids (Birmingham, Ala.), was added to the chloroform DMPC:DMPG solution at a molar ratio of 7:3:4 (DMPC:DMPG:sterol).
(§2) In vitro activity of free Amp B, L-Amp B, L-Amp B-C and L-Amp B-E was tested on the following yeast species, all clinical isolates obtained from the Clinical Microbiology Laboratories at the University of Texas M.D. Anderson Hospital and Tumor Institute at Houston: Candida albicans, C. tropicalis, C. parapsilosis, Torulopsis glabrata and Cryptococcus neoformans. The YNB tube dilution method described by Shadomy, S., et al., "Susceptibility Testing with Antifungal Drugs." In Lennette, E. H., et al. (eds.), Manual of Clinical Microbiology, 3rd Ed. (Washington, D.C., American Society for Microbiology, 1980), pp. 647-653, hereby incorporated by reference, was used to perform all tests. All tubes were subcultured (10 μl ) onto Sabouraud-dextrose agar (SDA) (Scott/Randolph, Houston, Tex.) plates. Minimal fungicidal concentrations (MFC) were determined after incubation for 18 hours. The MFC was defined as the lowest concentration of Amp B that allowed no growth or growth of fewer than four colonies on the subculture plates.

For another series, the system named is Candida parapsilosis. Briefly: In vitro MFC, YNB tube dilution (Table 1). The series is classed as cell-based. Particulars: 18 h. On the procedure: as §1, §2
The next series relates to Candida tropicalis. In words: In vitro MFC, YNB tube dilution (Table 1). Type of series: cell-based. The note with it: 18 h. As to the method: as §1, §2
A further series has as its system Candida glabrata. Briefly: In vitro MFC, YNB tube dilution (Table 1). The series is classed as cell-based, Candida glabrata (Torulopsis glabrata in method). The note with it: 18 h. On the procedure:
as §1, §2

The subject of a further series is Candida neoformans. Briefly: In vitro MFC, YNB tube dilution (Table 1). Type of series: cell-based, Candida neoformans (Cryptococcus neoformans in method). Particulars: 18 h. On the procedure: as §1, §2
Series [1] deals with yeast species, clinical isolates. Briefly: In vitro antifungal activity summarized over the 19 yeast strains. The series is classed as cell-based. On the procedure:
as §1, with “Cholesterol or ergosterol, obtained from Avanti Polar Lipids (Birmingham, Ala.), was added to the chloroform DMPC:DMPG solution at a molar ratio of 7:3:4 (DMPC:DMPG:sterol).” left out
In vitro activity of free Amp B, L-Amp B, L-Amp B-C and L-Amp B-E was tested on the following yeast species, all clinical isolates obtained from the Clinical Microbiology Laboratories at the University of Texas M.D. Anderson Hospital and Tumor Institute at Houston: Candida albicans, C. tropicalis, C. parapsilosis, Torulopsis glabrata and Cryptococcus neoformans. […] Minimal fungicidal concentrations (MFC) were determined after incubation for 18 hours. […]

In the next series the test system is C. albicans. Briefly: MFC of Amp B in different phospholipid compositions (Table 3). The series is classed as cell-based, Candida albicans. Particulars: effect of lipid composition.
Another series has as its system C. albicans 336. Briefly: Survival of infected mice, effect of lipid composition (FIG. 3). The series is classed as in vivo, Hale-Stoner mice. Particulars: 1.6 mg Amp B/kg. On the procedure: Hale-Stoner mice, 6-8 weeks old and weighing 20-25 g, were obtained from The University of Texas Science Park (Bastrop, Tex.). Mice (10 per group) were injected intravenously with Candida albicans strain 336. This strain was grown for 18 hours on SDA plates at 37° C., washed and resuspended in saline. The mice were injected in the tail vein with 0.2 ml of the suspension containing 7×10^5 colony-forming units. […] The mice were injected on the second day of infection with a single dose of Amphotericin B.
Amp B was encapsulated in sterol-free and sterol-containing liposomes prepared by the method described in Example 2, above. Amp B concentration was determined at 405 nm as described in Example 2.
The effect of the lipid composition of the liposome on the survival of mice infected with C. albicans 336 was also evaluated. Each liposome case shown in FIG. 3 used 1.6 mg Amp B in 200 mg total lipid/kg.

A short description of series [2]: Toxicity / tolerated dose in mice. The note with it: mouse, in vivo. From the text: The liposome-encapsulated Amp B may then be administered to a mammal infected with a fungal infection.
The next series in a line: physchem. The series is classed as physicochemical. Particulars: organic solvent or mixture. As to the method:
The lipids dimyristoyl phosphatidylcholine (DMPC) and dimyristoyl phosphatidylglycerol (DMPG) were obtained from Avanti Polar Lipids (Birmingham, Ala.), and desoxycholate-free Amp B was obtained from Dr. Dan Bonner (Squibb Pharmaceuticals, New Brunswick, N.J.). DMPC and DMPG were dissolved in chloroform in a molar ratio of 7:3 DMPC:DMPG. Amp B was dissolved in methanol at a concentration of 40 μg/ml and the Amp B solution added to the chloroform containing the DMPC and DMPG. This mixture was placed in a rotary evaporator (Rotavapor®; Brinkman Instruments, Westbury, N.Y.) until all organic solvents were removed. Normal saline was then added and the vesicles formed by gentle agitation. Using this method, to prepare enough liposome-encapsulated Amp B to make up a single dose for a 50 kg patient at a dose of 0.8 mg/kg body weight (as discussed in Example 4) requires the drying of at least 1 to 1.5 liters of the Amp B-methanol solution. Under controlled temperature and pressure conditions, approximately 3 to 4 hours are required to evaporate this volume of the Amp B-methanol solution.
Using this method, 640 μg of Amp B was dissolved in 1 ml of chloroform (containing 25 mg of the lipid mixture), a significant increase over the 40 μg/ml which can be dissolved in methanol as in the method described above. […]

The subject of the next series is Aspergillus terreus. Briefly: Treatment of cancer patient, Case 2. The series is classed as in vivo, human.
Series [3] has as its system systemic fungal infection (fungal liver abscesses, consistent with Aspergillus spp.). The note with it: human, in vivo.
For series [4] the following is noted: cited from earlier work.
For series [5] the following is noted: intravenous administration; cited from earlier work.
For series [6] the following is noted: Poste, Biol. Cell 47; 19 (1983); cited from earlier work.

`C[C@@H]1[C@H](O)[C@@H](C)/C=C/C=C/C=C/C=C/C=C/C=C/C=C/[C@H](O[C@@H]2O[C@H](C)[C@@H](O)[C@H](N)[C@@H]2O)C[C@@H]2O[C@](O)(C[C@@H](O)C[C@@H](O)[C@H](O)CC[C@@H](O)C[C@@H](O)CC(=O)O[C@H]1C)C[C@H](O)[C@H]2C(=O)O` [Amp B, Amphotericin B]: the MFC against Candida albicans (strain 57) is 0.8 μg/Amp B/ml; against Candida albicans (strain 306) it was 1.6 μg/Amp B/ml; in the series with Candida albicans (strain 704), 0.4 μg/Amp B/ml; in the series with Candida albicans (strain 1091), 0.8 μg/Amp B/ml; against Candida parapsilosis (strain 139), 3 μg/Amp B/ml; with Candida parapsilosis (strain 1341), > 25 μg/Amp B/ml. Further, the MFC with Candida parapsilosis (strain 2300) turned out to be 3 μg/Amp B/ml; with Candida tropicalis (strain 251), 3 μg/Amp B/ml; in the series on Candida tropicalis (strain 1324) it was 1.6 μg/Amp B/ml; in the series with Candida tropicalis (strain 1784) it was 3 μg/Amp B/ml; against Candida tropicalis (strain 2463), 1.6 μg/Amp B/ml; in the series with Candida glabrata (strain 684) it was 3 μg/Amp B/ml. Also, the MFC in the series on Candida glabrata (strain 1172) is listed as 1.6 μg/Amp B/ml; in the series with Candida glabrata (strain 1905) it was 3 μg/Amp B/ml; in the series on Candida glabrata (strain 2539), 3 μg/Amp B/ml; with Candida neoformans (strain 222), 1.6 μg/Amp B/ml; with Candida neoformans (strain 595), 0.4 μg/Amp B/ml; in the series with Candida neoformans (strain 843), 0.8 μg/Amp B/ml. In addition, the MFC with Candida neoformans (strain 881) is reported as 1.6 μg/Amp B/ml; against C. albicans it was 1.6 μg of Amp B per ML. For the same compound, the “efficacy ranking in killing of the fungal strains” value in [1] is “Amp B being most effective, then L-Amp B, L-Amp B-C and, finally L-Amp B-E”. In the series with C. albicans 336, the “survival time over the controls” value is reported as “improved survival time over the controls”. In addition, the “time to 50% survival” value in the series with C. albicans 336 (control 5 days) turned out to be 10 days. The LD50 in series [2] was ~1.2 mg/kg. Further, the MTD in [2] (read-out: maximum dose tolerated) was 0.8 mg/kg. Also, the solubility in the series “physchem” (chloroform with lipid mixture) was 640 µg/mL (≈ 693 µM); in “physchem” (methanol), 40 µg/mL (≈ 43.3 µM). For the same compound, the “response to non-liposomal Amp B therapy” value in the series with Aspergillus terreus (intravenous) was “nasal lesions worsened in spite of Amp B therapy and new lung lesions appeared on chest x-ray examination”. Also, the “response to Amp B by aerosolization” value with Aspergillus terreus (total of 1.4 gm by aerosolization) is listed as “without improvement”. For the same compound, the “side effects of non-liposomal Amp B therapy” value in the series on Aspergillus terreus (total of 2.4 gm intravenously) is “always associated with severe nausea, fever and chills”; in series [3] it was “fever and chills were observed”. In addition, in series [4], the “solubility in aqueous solution” value is recorded as “insoluble in aqueous solution”. Moreover, the toxic effects entry in series [5] is “renal disfunction, anemia, fever and hypotension”.
For `CCCCCCCCCCCCCCCCOP(=O)(O)OCCCCCCCCCCCCCCCC` [dicetyl phosphate], in series [6], the “toxicity in mammalian systems” value is recorded as “toxic in mammalian systems in that they cause damage to the liver”.
For `CCCCCCCCCCCCCCCCCCN` [stearylamine], the “toxicity in mammalian systems” value in series [6] is on record as “toxic in mammalian systems in that they cause damage to the liver”.
